From PMC4038472, “Exploring the Potential of Flubendazole in Filariasis Control: Evaluation of the Systemic Exposure for Different Pharmaceutical Preparations” (PLoS Neglected Tropical Diseases, 2014)
Like-named read-outs stand apart in the source and are kept apart here.

Experiments:
[1] = type: in vivo; conditions: for Time at which peak plasma concentrations were observed: range according to the experimental group and animal species (rats and jirds), FLBZ 5 mg/kg
Description: (§1) Jirds and rats were randomly allocated into four experimental groups (44 animals each). Experimental animals received the following treatments: FLBZ-CDoral, dosed orally (administered volume 0.25 and 1 mL for jirds and rats, respectively) in a CD-based solution (Cavasol); FLBZ-CDsc, dosed subcutaneously (sc) (injection volume of 0.25 and 1 mL for jirds and rats, respectively) in a CD-based solution (Cavitron); FLBZ-TWEEN, dosed sc (injection volume of 0.1 and 0.4 mL for jirds and rats, respectively) in a Tween-based formulation; and FLBZ-CMC, dosed orally (same volume as for FLBZ-CDoral) in a CMC-based suspension. The oral dose was administered using an intragastric tube. All treatments were given as a single dose of 5 mg/kg. The dose was selected because it is the dose previously reported in efficacy studies performed in the murine model. At defined time-points following treatment (5, 15 and 30 min, 1, 2, 3, 4, 6, 9, 12 and 16 h), blood samples were collected (n = 4 per time point) in heparinized plastic tubes. Plasma was separated by centrifugation at 2000× g for 15 min, placed into plastic tubes and frozen at −20°C until analysis by HPLC to quantify FLBZ, R-FLBZ and H-FLBZ plasma concentrations. After sc administration of the formulations, potential injection site reactions were evaluated by direct visual observation at the sampling time.
Chromatography was performed on a Shimadzu HPLC platform (Shimadzu Corporation, Kyoto, Japan), with two LC-10AS solvent pumps, an automatic sample injector (SIL-10A) with a 50 µL loop, an ultraviolet-visible spectrophotometric detector (UV) (SPD-10A) reading at 292 nm, a column oven (Eppendorf TC-45, Eppendorf, Madison, WI, USA) set at 30°C, and a CBM-10A integrator. Data and chromatograms were collected and analyzed using the Class LC10 software (SPD-10A, Shimadzu Corporation, Kyoto, Japan). The C18 reversed-phase column (5 µm, 250 mm×4.6 mm) was Kromasil (Kromasil®, Sweden). […]
Plasma samples (100 or 200 µL for jirds and rats, respectively) were spiked with OBZ as internal standard. […] Complete validation of the analytical procedures for extraction and quantification of drug and metabolites in plasma was performed before starting the analysis of experimental samples. […] The limit of quantification (FLBZ and metabolites was 0.01 µg/mL), defined as the lowest measured concentration with a CV <20%, accuracy of ±20% and absolute recovery ≥70%.
The peak concentration (Cmax) and time to peak concentration (Tmax) were read from the plotted concentration–time curve for each analyte. The area under the concentration–time curve from 0 up to the limit of quantification (AUC0-LOQ) for FLBZ and metabolites was calculated by the trapezoidal rule, using the PKSolutionTM computer program (Summit Research Services, Ashland, OR, USA). […]

[2] = mouse, in vivo; cited from earlier work
[3] = Plasma pharmacokinetics of FLBZ and metabolites after oral or sc FLBZ formulations in jirds; type: in vivo, jirds (Meriones unguiculatus)
Description: as §1, with “All treatments were given as a single dose of 5 mg/kg. The dose was selected because it is the dose previously reported in efficacy studies performed in the murine model. At defined time-points following treatment (5, 15 and 30 min, 1, 2, 3, 4, 6, 9, 12 and 16 h), blood samples were collected (n = 4 per time point) in heparinized plastic tubes.” left out
Chromatography was performed on a Shimadzu HPLC platform (Shimadzu Corporation, Kyoto, Japan), with two LC-10AS solvent pumps, an automatic sample injector (SIL-10A) with a 50 µL loop, an ultraviolet-visible spectrophotometric detector (UV) (SPD-10A) reading at 292 nm, a column oven (Eppendorf TC-45, Eppendorf, Madison, WI, USA) set at 30°C, and a CBM-10A integrator. […]

[4] = design: method as in earlier work; conditions: pigs after FLBZ treatment; cited from earlier work

| Compound | Time at which peak plasma concentrations were observed [1] | Increase of systemic exposure compared to the conventional FLBZ suspension [2] | Plasma AUC, fold higher than conventional suspension [2] | Plasma Cmax, fold higher than conventional suspension [2] | H-FLBZ concentrations as share of the total amount of drug recovered in plasma ([3]; FLBZ-CD (oral or sc) or FLBZ-TWEEN, 5 mg/kg) | H-FLBZ as share of total drug measured in the bloodstream [4] | Amount of R-FLBZ metabolite present in the bloodstream ([1]; rat, in vivo) | R-FLBZ AUC0-LOQ as share of the total drug recovered from plasma ([1]; rat, in vivo, 5 mg/kg) | R-FLBZ AUC0-LOQ as share of the total drug recovered from plasma ([3]; the different groups, FLBZ 5 mg/kg) |
| --- | --- | --- | --- | --- | --- | --- | --- | --- | --- |
| COC(=O)Nc1nc2cc(C(=O)c3ccc(F)cc3)ccc2[nH]1 [FLBZ, flubendazole] | 0.7 to 3.2 h | more than 25 fold | 27 fold | 28 fold |  |  |  |  |  |
| Nc1nc2cc(C(=O)c3ccc(F)cc3)ccc2[nH]1 [H-FLBZ] | 3.0 to 5.2 h |  |  |  | 10–20% | 97% |  |  |  |
| COC(=O)Nc1nc2ccc(C(O)c3ccc(F)cc3)cc2[nH]1 (stereo not shown) [R-FLBZ] |  |  |  |  |  |  | only trace amounts | about 10% | about 10% |
